The target in data set [1] is T1, calcium-activated neutral thiolprotease (CANP) (Gallus gallus, UniProt P00789).
T1 construct: CANP prepared from a muscle of hereditary muscular dystrophy chicken; from tissue; host or cells: muscle of hereditary muscular dystrophy chicken
T1 sequence (P00789 1-705): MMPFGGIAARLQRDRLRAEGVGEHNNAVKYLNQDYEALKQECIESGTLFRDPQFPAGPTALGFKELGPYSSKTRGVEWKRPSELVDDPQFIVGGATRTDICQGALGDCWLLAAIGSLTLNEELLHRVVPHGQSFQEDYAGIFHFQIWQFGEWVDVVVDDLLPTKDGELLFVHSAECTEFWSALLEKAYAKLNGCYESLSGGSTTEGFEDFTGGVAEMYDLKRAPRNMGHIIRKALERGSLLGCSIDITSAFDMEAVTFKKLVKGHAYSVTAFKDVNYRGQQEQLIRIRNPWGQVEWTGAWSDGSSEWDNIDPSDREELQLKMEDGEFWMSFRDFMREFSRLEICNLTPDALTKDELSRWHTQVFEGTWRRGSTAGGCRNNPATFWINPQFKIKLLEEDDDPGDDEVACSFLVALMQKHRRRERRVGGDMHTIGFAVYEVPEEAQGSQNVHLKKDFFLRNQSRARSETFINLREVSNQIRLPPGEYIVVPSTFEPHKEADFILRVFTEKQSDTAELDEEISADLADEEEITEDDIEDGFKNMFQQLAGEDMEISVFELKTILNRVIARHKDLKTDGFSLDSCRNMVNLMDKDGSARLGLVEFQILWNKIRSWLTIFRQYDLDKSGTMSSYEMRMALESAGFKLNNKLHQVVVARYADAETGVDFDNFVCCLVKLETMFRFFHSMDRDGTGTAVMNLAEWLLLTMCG
Nature of the data set: CANP inhibitory activity (method of Ishiura et al). Format: biochemical. The following applies: 50% inhibition as molar ratio to the enzyme; CANP from muscle of hereditary muscular dystrophy chicken. The method, then:
Their muscular dystrophy inhibitory activity was assayed by the method of Ishiura et al, [J. of Biochem., 84, 225(1978)] using CANP prepared from a muscle of hereditary muscular dystrophy chicken, and the resulting value for 50% inhibition in the molar ratios for the enzyme expressed as ID50 (mole/mole) is shown in Table 1.

A further data set addresses T2, papain (Carica papaya, UniProt P00784).
T2 construct: purchased Sigma Chem. Co
T2 sequence (P00784 134-345): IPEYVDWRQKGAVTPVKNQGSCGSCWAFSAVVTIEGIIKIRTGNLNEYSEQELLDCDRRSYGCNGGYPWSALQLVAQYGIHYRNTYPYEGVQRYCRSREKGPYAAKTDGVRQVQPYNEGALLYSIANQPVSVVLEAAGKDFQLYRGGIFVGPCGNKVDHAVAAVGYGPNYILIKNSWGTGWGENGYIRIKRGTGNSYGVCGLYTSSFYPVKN
Nature of the data set: Papain inhibitory activity (method of K. Hanada et al). Format: biochemical. As to conditions: papain 80 ug/ml, Sigma, 2 x cry. How it is done:
Papain inhibitory activity of the compounds of the present invention was assayed by the method of K. Hanada et al, [Argric. Biol. Chem., 42, No. 3, 523(1978)] using papain (80 ug/ml, Sigma Chem. Co., 2 x cry.).

Data set [2] in a line: Concentration of test compound in rat plasma after subcutaneous administration. Format: in vivo. The following applies: sc, 50 mg/kg, an hour after administration. How it is done: The compounds of the present invention are better absorbed by the subcutaneous route in mammals such as rats or rabbits, as compared with the epoxysuccinic acid derivatives of the German Patent Laid Open Application described above and Chemical Abstracts, 87, 68129a (1977). To determine absorption, these compounds were administered subcutaneously to rat at a dose of 50 mg/kg, and the concentration of the test compound in rat plasma at an hour after the administration was shown in Table 1.

Where a name gives a salt, the structure may show the parent alone.

Take `COC(=O)[C@H](C)NC(=O)[C@@H](NC(=O)C1OC1C(=O)OCc1ccccc1)C(C)C` (some centres unmarked) [Compound 42]: the “CANP Inhibitory Activity ID50 (mole/mole)” value in data set [1] turned out to be 120 mole/mole. The “Papain ID50 (amount of inhibitor for 50% inhibition)” value at papain was determined as 0.595 µg. The concentration at 1 h in data set [2] was found to be 1100 ng/mL.

Turning to `CC(C)C[C@H](NC(=O)C1OC1C(=O)OCc1ccccc1)C(=O)N[C@@H](CCCNC(=O)OCc1ccccc1)C(=O)OCc1ccccc1` (mixture of isomers) [Compound 30, N-(DL-3-trans-benzyloxycarbonyloxirane-2-carbonyl)-L-leucyl-δ-carbobenzoxy-L-ornithine benzyl ester], the “CANP Inhibitory Activity ID50 (mole/mole)” value in data set [1] was 100 mole/mole. Besides, the “Papain ID50 (amount of inhibitor for 50% inhibition)” value at papain came to 0.391 µg. Moreover, in data set [2], the concentration at 1 h amounted to 2000 ng/mL.

On to `CC[C@H](C)[C@H](NC(=O)C1OC1C(=O)OCc1ccccc1)C(=O)N(C)Cc1ccccc1` (mixture of isomers) [Compound 12, N-[N'-(DL-3-trans-benzyloxycarbonyloxirane-2-carbonyl)-L-isoleucyl]-N-methylbenzylamine], for which the “CANP Inhibitory Activity ID50 (mole/mole)” value in data set [1] was 65 mole/mole. For the same molecule, the “Papain ID50 (amount of inhibitor for 50% inhibition)” value at papain was found to be 0.260 µg. The molecule further registered a concentration at 1 h in data set [2] of 1300 ng/mL.

In the case of `CC(C)C[C@H](NC(=O)C1OC1C(=O)O)C(=O)NC(C)C` (mixture of isomers) [Compound 15, N-[N'-(DL-3-trans-carboxyoxirane-2-carbonyl)-L-leucyl]isopropylamine potassium salt], the “CANP Inhibitory Activity ID50 (mole/mole)” value in data set [1] is 35 mole/mole. Also, the “Papain ID50 (amount of inhibitor for 50% inhibition)” value at papain was 0.112 µg. For the same molecule, the concentration at 1 h in data set [2] stood at 20000 ng/mL.

On to `CCOC(=O)C1OC1C(=O)N[C@@H](CC(C)C)C(=O)OCc1ccccc1` (stereo partly drawn) [C, N--(3ethoxy-carbonyloxirane-2-carbonyl)-L-leucine benzyl ester, reference compound], for which the “CANP Inhibitory Activity ID50 (mole/mole)” value in data set [1] stood at 580 mole/mole. The same molecule gave a concentration at 1 h in data set [2] below 1000 ng/mL.

For the molecule `O=C(O)C1OC1C(=O)N[C@@H](Cc1ccccc1)C(=O)OCc1ccccc1` (stereo partly drawn) [D, N--(3carboxyoxirane-2-carbonyl)-L-phenylalanine benzyl ester, reference compound], the “CANP Inhibitory Activity ID50 (mole/mole)” value in data set [1] came out at 574 mole/mole. In data set [2], this molecule came in with a concentration at 1 h below 1000 ng/mL.

`CC(C)C[C@H](NC(=O)C1OC1C(=O)O)C(=O)O` (stereo partly drawn) [E, N--(3carboxyoxirane-2-carbonyl)-L-leucine, reference compound]: the “CANP Inhibitory Activity ID50 (mole/mole)” value in data set [1] is on record as 4,600 mole/mole. Moreover, the concentration at 1 h in data set [2] was below 1000 ng/mL.

For `CC(C)C[C@H](NC(=O)C1OC1C(=O)O)C(=O)NCCc1ccccc1` (mixture of isomers) [Compound 16, N-[N'-(DL-3-trans-carboxyoxirane-2-carbonyl)-L-leucyl]phenethylamine potassium salt], the “CANP Inhibitory Activity ID50 (mole/mole)” value in data set [1] came out at 90 mole/mole. Also, on papain, the “Papain ID50 (amount of inhibitor for 50% inhibition)” value was found to be 0.123 µg. In data set [2], the concentration at 1 h turned out to be 12000 ng/mL.

Take `O=C(O)[C@H]1O[C@@H]1C(=O)OCc1ccccc1` (relative stereo) [B, Benzyl hydrogen epoxysuccinate, reference compound]: the “CANP Inhibitory Activity ID50 (mole/mole)” value in data set [1] stood at 410 mole/mole. The same molecule returned a concentration at 1 h in data set [2] below 1000 ng/mL.

As for `CCOC(=O)[C@H]1O[C@@H]1C(=O)O` (relative stereo) [A, Ethyl hydrogen epoxysuccinate, reference compound], the “CANP Inhibitory Activity ID50 (mole/mole)” value in data set [1] was 5,400 mole/mole. This molecule gave a concentration at 1 h in data set [2] below 1000 ng/mL.

In the case of `CC(C)C[C@H](NC(=O)C1OC1C(=O)O)C(=O)N[C@@H](CC(C)C)C(=O)OCc1ccccc1` (mixture of isomers) [Compound 48, N-(DL-3-trans-carboxyoxirane-2-carbonyl)-L-leucyl-L-leucine benzyl ester], the “Papain ID50 (amount of inhibitor for 50% inhibition)” value on papain is 0.215 µg.

The values are drawn from US4382889A, “Epoxysuccinic acid derivatives” (Taisho Pharmaceutical Co., Ltd., priority 1979, dated 1983).
